Assay results published in patent publication US8071645B2, “Systems and methods for treating human inflammatory and proliferative diseases and wounds, with fatty acid metabolism inhibitors and/or glycolytic inhibitors” (The Regents of the University of Colorado, priority 2003, dated 2011).

Assays:
Format in all cases: cell-based
[1] = test system: cell-surface Fas on drug resistant L1210/DDP cells; assay: cell-surface Fas expression on L1210/DDP cells by flow cytometry
Experimental: (§1) Flow Cytometry. Cells were harvested, counted, and resuspended at 10^6 cells/100 μl of PBS containing 2.5% fetal calf serum in preparation for flow cytometric analysis. Cells were stained for intracellular H202 using 6-carboxy-2′,7′-dichlorodihydrofluorescein diacetate (DCF-DA, Molecular Probes, Eugene, Oreg.). Briefly, cells were incubated at 37° with 1 mM DCF-DA for 20 minutes, washed twice in PBS containing 2.5% fetal calf serum and analyzed flow cytometrically. Mitochondrial membrane potential was assessed using Mitotracker Red (CM-H2XROS, Molecular Probes, Eugene, Oreg.). […] The cells were incubated at 37° for 20 minutes, washed twice in PBS containing 2.5% fetal calf serum and analyzed flow cytometrically. Data were acquired on a Coulter Elite Epics or Excel flow cytometer (Coulter, Hialeah, Fla.) and analyzed with CellQuest software, (Becton Dickinson, San Jose, Calif.). […] Each sample population was classified for cell size (forward scatter) and complexity (side scatter), gated on a population of interest and evaluated using 5,000 cells. […]
Drug sensitive L1210 cells and drug resistant L1210/DDP cells were cultured with etomoxir for 24 hours (Tx indicates treatment with etomoxir). The level of cell-surface Fas was determined using fluorochrome conjugated anti-Fas antibodies and flow cytometry. The Fas levels are measured relative to a control for staining artifacts. […]

L1210 DDP cells = assay: mitochondrial membrane potential (MitoTracker) of L1210 DDP cells; details: 24 hours of incubation, FIG. 11
Experimental: as §1
We measured the effects of etomoxir on metabolism by measuring mitochondrial membrane potential with a fluorescent dye (Mitotracker Red, Molecular Probes, Eugene, Oreg.) which fluoresces as a function of mitochondrial potential. […]

[2] = test system: human leukemia RU937 cells; assay: mitochondrial membrane potential (MitoTracker) of RU937 cells; details: 24 hours of incubation, FIG. 13
Experimental: (§2) Flow Cytometry. Cells were harvested, counted, and resuspended at 10^6 cells/100 μl of PBS containing 2.5% fetal calf serum in preparation for flow cytometric analysis. Cells were stained for intracellular H202 using 6-carboxy-2′,7′-dichlorodihydrofluorescein diacetate (DCF-DA, Molecular Probes, Eugene, Oreg.). Briefly, cells were incubated at 37° with 1 mM DCF-DA for 20 minutes, washed twice in PBS containing 2.5% fetal calf serum and analyzed flow cytometrically. Mitochondrial membrane potential was assessed using Mitotracker Red (CM-H2XROS, Molecular Probes, Eugene, Oreg.). The cells were resuspended in PBS containing 2.5% fetal calf serum containing a final concentration of 0.5 micromolar Mitotracker dye. The cells were incubated at 37° for 20 minutes, washed twice in PBS containing 2.5% fetal calf serum and analyzed flow cytometrically. Data were acquired on a Coulter Elite Epics or Excel flow cytometer (Coulter, Hialeah, Fla.) and analyzed with CellQuest software, (Becton Dickinson, San Jose, Calif.). […] Each sample population was classified for cell size (forward scatter) and complexity (side scatter), gated on a population of interest and evaluated using 5,000 cells. […]
The effects of etomoxir on human leukemia RU937 cells was determined. […]

[3] = test system: human leukemia HL60 cells; assay: DCFDA staining of HL60 cells; details: 24 hours of incubation, FIG. 14
Experimental: as §2
The effects of etomoxir on human leukemia HL60 cells was determined. […]

B16F1 melanoma cells = assay: DCFDA staining (reactive oxygen species) of B16F1 melanoma cells; details: 48 hours, FIG. 19
Experimental: Metabolic Activity Assay. Cells were prepared as previously described. The specific metabolic dye was added and mixed into the cell suspension. This plate was then placed into the 37° incubator for a 20-minute incubation. After incubation, the cells were centrifuged at 300×g for 5 minutes, and the supernatant was removed. The cells were then washed once with PBS/2.5% FBS and transferred into flow cytometric tubes containing 500 μL of PBS/2.5% FBS for analysis
5-(and -6)-Chloromethyl-2′,7′-dichlorodihydrofluorescein diacetate (CMH2DCFDA) (Molecular Probes). One vial of DCFda provides 10 tests and contains 50 μg. This is unstable and can't be stored. Therefore, each vial was opened and 43 μL of DMSO was added. […]
Geometric Mean Fluorescence. […] Once the stained sample was plotted against the control (isotype or unstained), geometric mean fluorescence values were obtained for both histogram peaks. The stained control sample value was subtracted from sample to identify the actual fluorescence of the stained sample over that of the control.
B16F1 melanoma cells of Example 12 were untreated or treated with etomoxir at the indicated concentrations for 48 hours. Cells were harvested, stained with DCFDA as described in Materials and Methods, and analyzed by flow cytometry. The value of DCFDA was then calculated as described in Materials and Methods.

[4] = test system: cell surface UCP2 on A-204 human rhabdomyosarcoma cells; assay: cell surface UCP2 expression on A-204 cells by flow cytometry; details: 24, 48, & 72 hours, FIG. 26
Experimental: Cell Surface Staining. Non-permeabilized cells were stained with antibodies to the cell surface receptors Fas (CD95) (Pharmingen) or with antibodies to uncoupling proteins (anti-UCP2 antibody) (Alpha Diagnostic International). Antibodies for both the isotype control and actual stain were added to the cell suspension, mixed, and then placed on ice for and incubation of 25 minutes in the dark. Subsequently the cells were centrifuged at 300×g for 5 minutes and the supernatant removed. The cells were washed one time with 100 μL of PBS/2.5% FBS and then transferred into flow cytometric tubes containing 500 μL of PBS/2.5% FBS for analysis.
A204 human rhabdomyosarcoma cells were cultured at a concentration of 0.5 to 1 million cells per ml. Cells were untreated or treated with etomoxir at concentrations indicated in FIG. 24 for 24, 48, & 72 hours. Cells were harvested and analyzed by flow cytometry. Dot plots are shown in FIG. 24 as functions of live versus dead cells. […] Five thousand cells were assessed for forward scatter (FS), as a function of cell size, versus side scatter (SS), as a function of cellular granularity. […]
Cells were untreated or treated with etomoxir at the concentration indicated in FIG. 26 at the indicated concentration for 24, 48, & 72 hours. Cells were harvested, stained with fluorochrome conjugated with anti-UCP2 antibody and analyzed by flow cytometry.

CCOC(=O)C1(CCCCCCOc2ccc(Cl)cc2)CO1 (stereo not shown) [etomoxir, 2-(6-(4-chlorophenoxy)-hexyl)-oxirane-2-carboxylic acid ethyl ester]
cell surface Fas ([1]; L1210/DDP, cultured with etomoxir for 24 hours, FIG. 7): significant increases
cell surface Fas on methotrexate-treated cells ([1]; L1210 DDP, etomoxir with methotrexate, FIG. 8): promotes increases
mitochondrial membrane potential (MitoTracker) (L1210 DDP cells): increase
levels of mitochondrial membrane potential (MitoTracker) [2]: increased
reactive oxygen intermediates (DCFDA staining) [3]: increases
reactive oxygen species as measured by DCFDA (B16F1 melanoma cells): dose dependent increase
cell surface UCP2 expression in the live cells [4]: time dependent “fold” increases
